{"source": "patent US11208433B2", "about": "“Peptide for inhibiting skin inflammation and composition for preventing or treating skin inflammation containing the same” (AVIXGEN Inc., priority 2017, dated 2021)", "key": {"[1]": {"test_system": "atopic mouse skin tissues", "test": "Immunohistochemical staining of atopic mouse skin tissue (angiogenic marker, inflammatory cells, keratin)", "assay_type": "in vivo, NC/Nga mouse", "conditions": "atopic mouse skin tissue, also similar to prednisolone treated group", "procedure": "(§1) After the ear auricle of the NC/Nga mouse was shaved with a razor, the epilating agent was applied in an appropriate amount for the complete depilation. After the epilating agent was wiped off, Then, 100 mg of the AD-inducing reagent shown in Table 2 as below was uniformly applied to the ear auricle using a micropipette tip, thereby inducing atopic dermatitis for the first time.\n(§2) After shaving with a razor for necessary, 150 μL of a 4% SDS aqueous solution was uniformly applied to the ear auricle using a micropipette, dried with a cold air using a dryer, and air-dried for about 2 to 3 hours. Then, 100 mg of the same AD-inducing reagent was uniformly applied to the ear auricle using a micropipette tip, thereby inducing atopic dermatitis after 2 times. All treatments were carried out twice a week to be 6 times for a total of 3 weeks, thereby producing atopic dermatitis animal model.\n(§3) The mice of groups 2 to 5 were obtained by the atopic dermatitis animal model prepared in Experimental Method 3 as described above.\n(§4) The experimental substance and the control substance were uniformly applied to the ear auricle using a micropipette tip. From the day of the experimental substance administration (Day 0) to the day of the autopsy (Day 14), they were administered once a day for 2 weeks.\nAtopy mouse skin tissues were immersed in Xylene three times for 5 minutes, 100% ethanol for 2 minutes, 95% ethanol for 2 minutes, 90% ethanol for 2 minutes, 70% ethanol for 2 minutes and D.W. for 2 minutes to remove paraffin and to perform hydration. After washing with PBS, they were treated with 0.2% Triton X-100 to increase cell permeability. After re-washing with PBS, they were reacted with blocking solution, 3% bovine serum albumin, for 1 hour. For inflammatory cells and keratin staining, they were reacted with F4/80 (sc-377009, Santa Cruz) and cytokeratin (NB600-579, NOVUSBIO) antibodies, respectively, at room temperature for 2 hours. After washing with PBS, they were treated with Texas Red (ab6787, Abcam) secondary antibody and reacted at room temperature for 60 minutes. The mounting solution was dropped on the tissue of the slide. Then, the tissue was covered with a cover slide, and the sample was observed under a fluorescence microscope. For analysis of the degree of angiogenesis, the atopic skin tissue was reacted with FITC-conjugated isolectin B4 (L2895, Sigma), a blood vessel marker at room temperature for 2 hours. The mounting solution was dropped on the tissue of the slide. Then, the tissue was covered with a cover slide, and the sample was observed under a fluorescence microscope\nThe mouse skin tissues stained with the respective markers were photographed using a fluorescence microscope (DMil, Leica, Germany), and fluorescence intensities were quantitatively analyzed using an ImageJ program (NIH, Bethesda, Md., USA)."}, "[2]": {"test_system": "atopic dermatitis animal model", "test": "Histopathological examination of ear epidermis and dermis (H&E scoring)", "assay_type": "in vivo, NC/Nga mouse", "conditions": "infiltration by inflammatory cells, p<0.05, FIGS. 8 and 9", "procedure": "After the ear auricle of the NC/Nga mouse was shaved with a razor, the epilating agent was applied in an appropriate amount for the complete depilation. After the epilating agent was wiped off, Then, 100 mg of the AD-inducing reagent shown in Table 2 as below was uniformly applied to the ear auricle using a micropipette tip, thereby inducing atopic dermatitis for the first time. After shaving with a razor for necessary, 150 μL of a 4% SDS aqueous solution was uniformly applied to the ear auricle using a micropipette, dried with a cold air using a dryer, and air-dried for about 2 to 3 hours. Then, 100 mg of the same AD-inducing reagent was uniformly applied to the ear auricle using a micropipette tip, thereby inducing atopic dermatitis after 2 times. All treatments were carried out twice a week to be 6 times for a total of 3 weeks, thereby producing atopic dermatitis animal model. The mice of groups 2 to 5 were obtained by the atopic dermatitis animal model prepared in Experimental Method 3 as described above. The experimental substance and the control substance were uniformly applied to the ear auricle using a micropipette tip. From the day of the experimental substance administration (Day 0) to the day of the autopsy (Day 14), they were administered once a day for 2 weeks. On the day of the autopsy, ears were removed for the histopathological examination and fixed in 10% neutral buffered formalin solution. The fixed tissues were subject to the general tissue treatment such as reprofiling, dehydration, paraffin embedding, and dissection, thereby preparing specimens for histopathological examination. Then, hematoxylin and eosin (H & E) and TUNEL assays were performed on histopathologic specimens, and the light microscopy (Olympus BX53, Japan) was used to observe histopathologic changes. In the histopathologic evaluation using hematoxylin and eosin staining slides, in order to compare the degree of the lesion with the induced control group, the most severe lesion was selected, and then the hypertrophy, hyperkeratosis and infiltration by inflammatory cells were evaluated in the epidermis. In the dermis, the infiltration by inflammatory cells was evaluated. Scoring criteria are the same as 0 (no symptoms), 1 (mild), 2 (moderate), and 3 (severe) (Taniguchi Y et al 2003)."}, "[3]": {"test_system": "histamine", "test": "ELISA analysis of serum histamine in atopic dermatitis animal model", "assay_type": "in vivo, NC/Nga mouse", "conditions": "day of autopsy (Day 14)", "procedure": "as §1, §2, §3, §4\nOn the day of the autopsy, blood samples were collected from the abdominal vein using a syringe. The serum isolated from the blood was analyzed for IgE and histamine using an ELISA kit."}, "[4]": {"test_system": "IgE", "test": "ELISA analysis of serum IgE in atopic dermatitis animal model", "conditions": "day of autopsy (Day 14)"}, "[5]": {"test_system": "HeLa cells", "test": "ACP-tetrapeptide cell membrane permeation experiment", "assay_type": "cell-based", "conditions": "3, 15 and 30 μM ACP-tetrapeptide-FITC for 3 hours, fluorescence microscopy, FIG. 14", "procedure": "HeLa cells were inoculated in a 12-well plate containing glass at a density of 1×10^5 cells/well and cultured for 24 hours to attach the cells to the glass. Then, HeLa cells were treated with 3 μM ACP-FITC peptide and 3, 15, and 30 μM ACP-tetrapeptide-FITC peptide for 3 hours. After 3 hours, the cells were washed three times with PBS. Then, the cells were fixed with 3.7% formaldehyde for 20 minutes and treated with PBS containing 0.2% Triton X-100 to increase cell permeability. Then, the cells were blocked with 3% BSA for 1 hour, reacted with a tubulin antibody (Santa Cruz Biotechnology, U.S.A.) at room temperature for 2 hours, and washed three times with PBS. Next, the cells were treated with a Cy3-conjugated secondary antibody (Jackson ImmunoResearch, USA) at room temperature for 1 hour, washed twice with PBS, and then stained with 4′,6-diamidino-2-phenylindole (DAPI) for 10 minutes. Finally, the HeLa cell-attached glass was removed and mounted on a sliding glass. The cells were observed under a fluorescence microscope (DMil, Leica, Germany)."}, "[6]": {"test_system": "atopic dermatitis animal model", "test": "Ear thickness measurement in atopic dermatitis animal model", "assay_type": "in vivo, NC/Nga mouse", "conditions": "FIG. 2", "procedure": "After the ear auricle of the NC/Nga mouse was shaved with a razor, the epilating agent was applied in an appropriate amount for the complete depilation. After the epilating agent was wiped off, Then, 100 mg of the AD-inducing reagent shown in Table 2 as below was uniformly applied to the ear auricle using a micropipette tip, thereby inducing atopic dermatitis for the first time. After shaving with a razor for necessary, 150 μL of a 4% SDS aqueous solution was uniformly applied to the ear auricle using a micropipette, dried with a cold air using a dryer, and air-dried for about 2 to 3 hours. Then, 100 mg of the same AD-inducing reagent was uniformly applied to the ear auricle using a micropipette tip, thereby inducing atopic dermatitis after 2 times. All treatments were carried out twice a week to be 6 times for a total of 3 weeks, thereby producing atopic dermatitis animal model. The mice of groups 2 to 5 were obtained by the atopic dermatitis animal model prepared in Experimental Method 3 as described above. The experimental substance and the control substance were uniformly applied to the ear auricle using a micropipette tip. From the day of the experimental substance administration (Day 0) to the day of the autopsy (Day 14), they were administered once a day for 2 weeks. Ear thickness was measured for each individual by calipers, and the ear area was photographed. Ear thickness measurement and photographing were performed once a week on the day of starting the experimental substance administration and thereafter."}}}
{"sequence": "VKCFNCGKEGHTARNCRAPRKKGCWKCGKEGHQMKDCTERLYE (ACP-tetrapeptide) [ACP cell penetrating peptide linked at the N-terminal of the tetrapeptide]", "values": [{"measurement": "angiogenesis (Isolectin B4 staining)", "setting": "[1]; FIG. 10", "result": "lower than that of the inducted control group"}, {"measurement": "inflammatory cell inflow (F4/80 staining)", "setting": "[1]; FIG. 11", "result": "lower than that of the inducted control group"}, {"measurement": "keratinization and fibrosis (cytokeratin staining)", "setting": "[1]; FIG. 12", "result": "lower than that of the inducted control group"}, {"measurement": "epidermis score level compared with group 2", "setting": "[2]; hypertrophy, hyperkeratosis", "result": "significantly lower"}, {"measurement": "dermis score level compared with group 2", "setting": "[2]", "result": "significantly lower"}, {"measurement": "histamine level compared with prednisolone treated group", "setting": "[3]; FIG. 7", "result": "lower than that of the prednisolone treated group"}, {"measurement": "histamine level compared with group 2 (induced control)", "setting": "[3]; p<0.001 or p<0.01, FIG. 7", "result": "significantly lower"}, {"measurement": "IgE level compared with prednisolone treated group", "setting": "[4]; FIG. 7", "result": "lower than that of the prednisolone treated group"}, {"measurement": "IgE level compared with group 2 (induced control)", "setting": "[4]; p<0.001 or p<0.01, FIG. 7", "result": "significantly lower"}, {"measurement": "IgE level compared with normal control group", "setting": "[4]; p<0.001 or p<0.01, FIG. 7", "result": "significantly higher"}, {"measurement": "cell membrane permeability (transfer into cells)", "setting": "[5]", "result": "transferred into the cells through ACP in a concentration-dependent manner without aggregation in the cell membrane"}, {"measurement": "ear thickness compared with induced control group (group 2)", "setting": "[6]; 7th and 14th day after administration, tetrapeptide 0.622, ACP-tetrapeptide 4.987, prednisolone 50 μg/ear once a day, p<0.001 or p<0.01", "result": "significantly thinner"}, {"measurement": "ear thickness compared with normal control group (group 1)", "setting": "[6]; 14th day after administration, p<0.001", "result": "significantly thicker"}]}
